Source: publication PMC4368482 (Nature, 2014)

Target: T1, tyrosyl tRNA synthetase (TyrRS) (Homo sapiens, UniProt P54577)
T1 sequence (P54577 1-528): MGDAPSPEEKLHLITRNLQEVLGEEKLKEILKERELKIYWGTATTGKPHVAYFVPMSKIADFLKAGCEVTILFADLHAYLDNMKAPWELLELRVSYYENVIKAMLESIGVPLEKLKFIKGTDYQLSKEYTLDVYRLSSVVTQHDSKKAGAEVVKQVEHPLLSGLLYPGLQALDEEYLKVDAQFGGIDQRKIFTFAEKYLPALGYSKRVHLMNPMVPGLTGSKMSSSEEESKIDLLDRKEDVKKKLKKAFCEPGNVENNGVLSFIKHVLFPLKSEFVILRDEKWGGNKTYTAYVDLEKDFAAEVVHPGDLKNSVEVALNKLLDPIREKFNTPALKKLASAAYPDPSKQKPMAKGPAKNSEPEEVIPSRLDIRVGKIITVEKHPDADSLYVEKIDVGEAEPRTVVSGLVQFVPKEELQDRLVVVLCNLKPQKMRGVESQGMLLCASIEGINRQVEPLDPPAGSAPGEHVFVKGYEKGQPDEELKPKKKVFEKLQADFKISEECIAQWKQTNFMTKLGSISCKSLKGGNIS
Test: X-ray co-crystal structure
Assay type: biochemical

Ki: 22 µM
Compound: Oc1ccc(/C=C/c2cc(O)cc(O)c2)cc1 [RSV, resveratrol]
